The test system of one data set is C3H female mice. Kind of data set: Lifetime incidence of cancer in normal C3H female mice given Tempol in drinking water. The class given is in vivo. Particulars: FIG. 2. An excerpt: Female C3H mice were supplied through the Frederick Cancer Research Center-Animal Production, Frederick, Md. […] All groups were allowed food and water ad libitum. All groups were followed for their entire life span. Animals were sacrificed at the first sign of a visible tumor nodule, gross enlargement of spleen, or marked difficulty in breathing. The presence of tumor was confirmed histologically.

Another data set relates to neoplastic cell lines. The settings on record: in vitro; Monti et al., PAACR 1995 and 1997; cited from earlier work.

Results on one molecule are retold here after patent US7153866B1 (The United States of America as represented by the …, priority 1997, dated 2006).

Consider `CC1(C)CC(O)CC(C)(C)N1[O]` [Tempol, 4-hydroxy-2,2,6,6-tetramethylpiperidine-1-oxyl], for which the “incidence of cancer (total number of tumors/group) compared to controls” value in the data set on C3H female mice (Tempol 58 mM in drinking water for entire life span) is on record as “four-fold reduction”. In the data set on C3H female mice (Tempol 58 mM in drinking water for one year), the “incidence of cancer (total number of tumors/group) compared to both control groups” value was “dramatically reduced the incidence of cancer”. Moreover, in the data set on neoplastic cell lines, the “cytotoxicity against neoplastic cell lines” value is given as “cytotoxic”.
